# Earlier results as cited in patent publication US9949928B2, “Biodegradable copolymers, systems including the copolymers, and methods of forming and using same” (The Regents of the University of Colorado, a body corporate, priority 2013, dated 2018).
# Settings: cited from earlier work
compound,measurement,value
CC1(C)O[C@@H]2C[C@H]3[C@@H]4CCC5=CC(=O)C=C[C@]5(C)[C@@]4(F)[C@@H](O)C[C@]3(C)[C@]2(C(=O)CO)O1 [triamcinolone acetonide],log P,1.16
